Structures are written as SMILES.

Consider `CCOC(=O)C(C(=O)Nc1ccc(C)cc1)(c1ccccc1)c1ccccc1`, for which the melting point is 88 to 90 °C.

The compound `Fc1ccc2c(c1F)C(C#CC1CC1)(C(F)(F)F)NC(=S)N2` (racemic) gave a melting point of 241 to 243 °C.

On to `O=C1NCC=NN1c1cc(Cl)c(Sc2ccc(Cl)cc2)c(Cl)c1`, for which the melting point lay in the range of 224 to 225 °C.

`CC(=O)NCc1ccc2c(c1)[C@@H](N1CCCC1=O)[C@H](O)C(C)(C)O2` (relative stereo) registered a melting point of 206 to 208 °C.

`Cc1noc(-c2ccc(C(=O)O)s2)n1` had a melting point of 226 to 228 °C.

Regarding `CCc1ccc2cc[nH]c2n1`, the melting point lay in the range of 117 to 120 °C.

As for `CC(=O)NCC1CN(c2ccc(N3CCN(c4nc5ccc(F)c(F)c5o4)CC3)c(F)c2)C(=O)O1` (stereo unspecified), the melting point lay in the range of 213 to 214 °C.

`CC1COc2cnc3cc(Cl)ccc3c2N1` (stereo unspecified): the melting point was 215 to 217 °C.

Regarding `Cn1cnc2c(N)cc(Br)cc21`, the melting point came out at 170 °C.

Turning to `Cc1nc(C)c(Cl)c(NCc2nccc(SCCCSCC3CN(C)C(=O)O3)c2C)n1` (stereo unspecified), the melting point was 121 °C.

For `O=C(O)c1cnc(-c2nnn[nH]2)cc1C1CCCCC1`, the melting point was determined as 278 °C.

`O=C(O)c1ccc(NCc2ccc(OCc3ccccc3)cc2)cc1` returned a melting point of 206 to 208 °C.

The compound `OCCn1ccc2cccnc21` had a melting point of 52.7 to 53.3 °C.

For `CC(C)CNC(=S)Nc1cccc(NC(=O)Nc2ccc(Cl)cc2)c1`, the melting point lay in the range of 195 to 196 °C.

In turn, `Cc1ccc2c3c(c(=O)oc2c1)CNCC3` displayed a melting point of 128 to 130 °C.

`CCOC(=O)c1cnn(-c2ccccc2)c1NC(=O)Nc1ccccc1` showed a melting point of 184 to 185 °C.

As to `N#Cc1cn(-c2c(Cl)cccc2Cl)c(=O)[nH]c1=O`, the melting point is 273 to 274 °C.

`COc1ccc(C2(C#Cc3cccc(C#N)c3)CCC(=O)CC2)cc1OC1CCCC1` registered a melting point of 124 to 126 °C.

For the compound `CCCNC(=O)C(C)Cc1ccc2c(c1)c(Cc1ccc(C(=O)NS(=O)(=O)c3ccccc3C)cc1OC)cn2CC(=O)N(C)C` (stereo unspecified), the melting point lay in the range of 109 to 124 °C.

Compound `BrC(Br)Cc1cccc2[nH]c(-c3ccccc3)cc12` gave a melting point of 106 °C.

Compound `C=CCNC(=O)N1CC(Oc2cccc(C(F)(F)F)c2)C1` gave a melting point of 75 to 76 °C.

Compound `CCC(=S)N(c1c(C)cccc1C)C(C)C(C)=S` (stereo unspecified) returned a melting point of 88 to 92 °C.

Regarding `COc1ccc(CC(=O)Nc2c(C)c(C)c3c(c2C)C(c2ccc(C(C)C)cc2)C(C)(C)O3)cc1` (stereo unspecified), the melting point was in the range of 171 to 173 °C.

For the compound `C[Si](C)(C1C=Cc2c(-c3ccccc3)cccc21)C1C=Cc2c(-c3ccccc3)cccc21` (stereo unspecified), the melting point was in the range of 109 to 110 °C.

The compound `CCOC(=O)/C=C/c1ccc2cc(OCc3ccccc3)ccc2c1` yielded a melting point of 110 to 112 °C.

`Cc1cc(-c2cc3c(cc2C)OC(C)(C)C=C3)ccn1` yielded a melting point of 212 to 214 °C.

The compound `COc1nc(I)cc(C(O)C(C)(C)C)c1C` (stereo unspecified) had a melting point of 64 to 65 °C.

The compound `O=c1ccn(-c2cc3[nH]c(=O)c(=O)[nH]c3cc2[N+](=O)[O-])cc1F` registered a melting point of more than 300 °C.

Compound `O=C(O)c1cnc(Nc2cccc(C(F)(F)F)c2)[nH]c1=O` registered a melting point of 252 to 254 °C.

As for `OCCc1c[nH]c2ccc(O)cc12`, the melting point lay within 98 to 102 °C.

`CCOC(=O)C(=CNc1ccc(F)cc1)C(=O)c1ccc(Cl)cc1Cl` came in with a melting point of 108 to 111 °C.

In the case of `CC(C)(C)OC(=O)N1CC(CCl)c2c1cc(N)c1ccccc21` (stereo unspecified), the melting point is more than 200 °C.

In the case of `CCC(=O)c1ccccc1CS(=O)(=O)NC(=O)Nc1nc(OC)cc(OC)n1`, the melting point was in the range of 155 to 158 °C.

The compound `CN(CC1=C(C#N)C(c2cccc3nonc23)c2c[nH]nc2N1)C(=O)OC(C)(C)C` (stereo unspecified) yielded a melting point of 207 °C.

`CCC1(N2C(=O)c3ccccc3C2=O)C(=O)NC(=O)N(C2CCCCC2)C1=O` (stereo unspecified): the melting point lay within 248 to 253 °C.

`COC(=O)c1cc(Br)c(OC)c2c1OCO2`: the melting point lay within 165 to 166 °C.
